Measured values as given in patent publication US20180169095A1, “THE USE OF SGC STIMULATORS, SGC ACTIVATORS, ALONE AND COMBINATIONS WITH PDE5 INHIBITORS FOR THE TREATMENT OF DIGITAL ULCERS (DU) CONCOMITANT TO SYSTEMIC SCLEROSIS (SSC)” (Bayer Pharma Aktiengesellschaft, priority 2015, published 2018).
“Also recorded” adds a separate entry of the source.

Tested on: Tsk-1 mice
Experiment: Wound healing in Tsk-1 mice (tight-skin mouse model of SSc), 4 mm punch wounds
Format: in vivo
Details: for Healing time relative to healthy WT control mice (in words): TSK mice, no dose given; for Healing time relative to healthy WT control mice (in words) / Wound healing in tsk-1 mice versus placebo (in words): summary statement; for Reduction of wound size / Normalization of wound healing versus placebo-treated WT mice (68%±2%) / Wound healing in tsk-1 mice versus placebo (in words): tsk-1 mice; for Reduction of wound size / Normalization of wound healing versus placebo-treated WT mice (68%±2%): 3 days after punching; for Reduction of wound size: mean±SEM; for Normalization of wound healing versus placebo-treated WT mice (68%±2%): 45 ppm in mice chow; for Wound healing in tsk-1 mice versus placebo (in words): drug in food
Experimental: The tight-skin (Tsk-1) mouse model of SSc was used to evaluate the effects of compound according to formula (27) and (3) (BAY 41-2272 and BAY 63-2521) on wound healing in mice with substantial skin fibrosis. Due to an autosomal dominant mutation namely a tandem duplication of the fibrillin-1 gene, the phenotype of tsk-1 mice is characterized by an increased hypodermal thickness (Beyer et al. 2010). Genotyping of Tsk-1 mice was performed by PCR with the following primers: mutated fibrillin-1/tsk-1 forward primer: 5′-[…]-3′, reverse primer: 5′-[…]-3′.
The effects of either placebo (=vehicle for the compounds=0.5% tylose solution), or the compound according to formula (27) or (3), (BAY 41-2272 or BAY 63-2521) were studied in Tsk-1 mice. Tsk-1 mice were anaesthetized and carefully shaved 3 days before setting the wounds for exact quantification of the wound size. In order to avoid influences on wound healing by daily handling of the animals, the bi-daily gavage treatment was replaced by drug administration in the food. Mice received either normal mice chow (placebo) or mice chow, containing 15 and 45 ppm of compound according to formula (27), (BAY 41-2272) or containing 5 ppm, 15 ppm and 45 ppm of compound according to formula (3), (BAY 63-2521), respectively. […] Treatment groups consist of at least 8 tsk-1 mice per group. Treatment started on the day of shaving to achieve steady state exposure. Three days after shaving, mice were carefully anesthetized and round wounds were punched with 4 mm in diameter. 3 days after punching, mice were euthanized and the wound size was assessed. Statistical analysis of data was done by one-way ANOVA followed by Tuckey's multiple comparison post-hoc analysis

[1] = 15 ppm in mice chow (exposure similar to 1 mg/kg BID)
[2] = 45 ppm in mice chow (exposure similar to 3 mg/kg BID)

Compound	Healing time relative to healthy WT control mice (in words)	Reduction of wound size (5 ppm in mice chow (exposure similar to 0.3 mg/kg BID))	Reduction of wound size [1] [%]	Reduction of wound size [2]	Normalization of wound healing versus placebo-treated WT mice (68%±2%)	Wound healing in tsk-1 mice versus placebo (in words)
COC(=O)N(C)c1c(N)nc(-c2nn(Cc3ccccc3F)c3ncccc23)nc1N [(3)]	normalized the healing time to healthy WT control mice	59%±4%	65±3	70%±2%	normalized wound healing to a similar extent as observed in placebo-treated WT mice	significantly and dose-dependently accelerated wound healing; also recorded: dose-dependently and significantly accelerated wound healing; also recorded: significantly and dose-dependently improved
Nc1nc(-c2nn(Cc3ccccc3F)c3ncccc23)ncc1C1CC1 [(27)]	normalized the healing time to healthy WT control mice		64±2	73±2%	normalized wound healing to a similar extent as observed in placebo-treated WT mice	significantly and dose-dependently accelerated wound healing; also recorded: significantly and dose-dependently improved
